Laboratory results taken from patent US6841661B2, “Glycopeptide antibacterial compounds, compositions containing same and methods of using same” (Princeton Univerisity, priority 1999, dated 2005).

Tests used:
[1] = tested on: E. faecium CL 4931 (VanA); assay: microbe, parasite or virus in culture; assay type: cell-based; design: CL4931 (in vitro testing): unit not given here; settings: Tables 7 and 8; unit not given
Excerpt: (§1) National Committee for Clinical Laboratory Standards (NCCLS) guidelines [Methods for Dilution Antimicrobial Susceptibility Tests for Bacteria that Grow Aerobically-Fourth Edition; Approved Standard (NCCLS Document M7-A4, January 1997)] are used to establish the assay, although variations are made to optimize the published method according to the specific needs of the present investigation.
(§2) The test panel currently includes eight enterococci and 13 staphylococci, which are selected based upon their antibiotic susceptibility profiles. The methicillin-sensitive Staphylococcus aureus (MSSA) strain MB2985 (Smith isolate) is used to assesses the potential for serum protein binding of the compounds. The paired Gram-negative strains ASP #49 (envA-) and ASP #50 (envA+) (M. Salvatore/N. Lee) are included to judge membrane effects. Table 3 presents a detailed description of the strains included in the panel, including some of the sources of the strains of bacteria.
(§3) The glycopeptide antibiotic teicoplanin is included whenever possible.
(§4) TSB, containing 10% HS* for vancomycin intermediate S. aurcus/methicillin-resistant S. aureus (VISA/MRSA) strains, is inoculated from an appropriate source (frozen broth or agar slant) and grown approximately 17 hr at 35° C. with shaking at 220 rpm. Cultures are grown in tubes with a volume of 5 ml for enterococci and 2 ml for all other strains.
(§5) Four milliliter (4 ml) overnight culture is added to 36 ml physiological saline to obtain tenfold dilutions (enterococci). Overnight culture (0.4 ml) is added to 39.6 ml saline to obtain 100-fold dilutions (all strains except enterococci). Diluted cultures are maintained on ice until time of inoculation of test plates.
(§6) The number of CFU/mL is determined on BHI agar plates, although this is not done routinely because titers of overnight cultures are relatively constant. The test media include: • BHI for enterococci and VISA/MRSA; • MH II (i.e., cation-adjusted Mueller-Hinton broth) for MRS, MSS and E. coli.; • MH II+HSA for MSSA is prepared as follows: • a. 2×MHII+86mg/ml HSA • b. Dissolve 4.3 g HSA in 50 ml autoclaved 2x MH II. • c. pH to 7.0 by adding 2M MOPS, sodium. • d. Filter sterilize using 0.22 μm Coming cellulose acetate filter, used because of reported low protein binding. • e. 1×MH II+43 mg/ml HSA • f. Dilute the 2×medium twofold and filter as above. 5.8.6. Preparation of Test Plates
(§7) Using a Denley liquid handling system (or similar automatic device), 100 μ1×medium is added to each well in columns 2-12 of a 96-well microtiter dish. Using a multichannel pipettor, 100 μl 2×medium is added to each well in column 1. Plates may be filled on the day prior to assay, wrapped in plastic bags and refrigerated.
(§8) Vancomycin, Schering 29482, and teicoplanin are prepared on a weight per volume basis using 10 mM 3-(N-morpholino)propane-sulfonic acid (MOPS) buffer pH 7. Test compounds are received in solution in appropriate solvent (typically as 1 mg/ml in DMSO) or are dissolved in appropriate solvent prior to further dilution in 10 mM MOPS buffer, ph7. Consistent with NCCLS guidelines, antibiotics are handled aseptically but are not otherwise sterilized.
(§9) 100 μl appropriately diluted antibiotic solution is added to the first well of the designated row of the 96-well microtiter dish and serially diluted by twofold across the row using the Denley liquid handling system. With the aid of a Dynatech NEC 2000 inoculator, each well of the microtiter dish is inoculated with 1.5 μl diluted overnight culture, yielding approximately 1-5×10^6 CFU/ml for enterococci and approximately 3-7×10^5 CFU/ml for all other strains. Dishes are placed in stacks of no more than five, wrapped in plastic bags and incubated at 35° C. • Indication of result(s) type (% INH, IC50, Zone size, etc.) • MIC=minimum inhibitory concentration ps 5.8.9. Interpretation of the Results on the Basis of Activity […]

[2] = tested on: E. faecalis CL 4877 (VanB); assay: microbe, parasite or virus in culture; assay type: cell-based; design: CL4877 (in vitro testing): unit not given here; settings: Tables 7 and 8; unit not given
Excerpt: as §1, §2, §3, §4, §5, §6, §7, §8, §9

[3] = tested on: E. faecium CL 5242 (VanA); assay: microbe, parasite or virus in culture; assay type: cell-based; design: CL5242 (in vitro testing): unit not given here; settings: Tables 7 and 8; unit not given
Excerpt: as §1, §2, §3, §4, §5, §6, §7, §8, §9

[4] = tested on: CL 4931, CL 5053, CL 5242 and CL 4877; assay type: cell-based, E. faecium, E. faecalis; design: unit not given here; settings: mean of CL4931, CL5053, CL5242, CL4877; unit not given
Excerpt: as §1, §2, §3, §4, §5, §6, §7, §8, §9

[5] = tested on: E. faecium CL 5053 (VanA); assay: microbe, parasite or virus in culture; assay type: cell-based; design: CL5053 (in vitro testing): unit not given here; settings: Tables 7 and 8; unit not given
Excerpt: as §1, §2, §3, §4, §5, §6, §7, §8, §9

CNCC1OC(Oc2c3cc4cc2Oc2ccc(cc2Cl)C(O)C2NC(=O)C(NC(=O)C4NC(=O)C(CC(N)=O)NC(=O)C(NC(=O)C(CC(C)C)NC)C(O)c4ccc(c(Cl)c4)O3)c3ccc(O)c(c3)-c3c(O)cc(O)cc3C(C(=O)O)NC2=O)C(OC2CC(C)(NCc3ccc(OCc4ccc(Cl)c(Cl)c4)cc3)C(O)C(C)O2)C(O)C1O (centres unmarked) [Compound 147]
CL4931 (in vitro testing) [1]: 4 | CL4877 (in vitro testing) [2]: 4 | CL5242 (in vitro testing) [3]: 2 | Mean [4]: 4.5 | CL5053 (in vitro testing) [5]: 8

CNC(CC(C)C)C(=O)NC1C(=O)NC(CC(N)=O)C(=O)NC2C(=O)NC3C(=O)NC(C(=O)NC(C(=O)O)c4cc(O)cc(O)c4-c4cc3ccc4O)C(O)c3ccc(c(Cl)c3)Oc3cc2cc(c3OC2OC(CNCCCN3CCCC3)C(O)C(O)C2OC2CC(C)(NCc3ccc(OCc4ccc(Cl)c(Cl)c4)cc3)C(O)C(C)O2)Oc2ccc(cc2Cl)C1O (centres unmarked) [Compound 160]
CL4931 (in vitro testing) [1]: 16 | CL4877 (in vitro testing) [2]: 16 | CL5242 (in vitro testing) [3]: 4 | Mean [4]: 13.0 | CL5053 (in vitro testing) [5]: 16

CNC(CC(C)C)C(=O)NC1C(=O)NC(CC(N)=O)C(=O)NC2C(=O)NC3C(=O)NC(C(=O)NC(C(=O)O)c4cc(O)cc(O)c4-c4cc3ccc4O)C(O)c3ccc(c(Cl)c3)Oc3cc2cc(c3OC2OC(CN)C(O)C(O)C2OC2CC(C)(NCc3ccc(OCc4cccc(Cl)c4)cc3)C(O)C(C)O2)Oc2ccc(cc2Cl)C1O (centres unmarked) [Compound 172]
CL4931 (in vitro testing) [1]: 16 | CL4877 (in vitro testing) [2]: >16 | CL5242 (in vitro testing) [3]: 2 | Mean [4]: 12.5 | CL5053 (in vitro testing) [5]: 16

CNC(CC(C)C)C(=O)NC1C(=O)NC(CC(N)=O)C(=O)NC2C(=O)NC3C(=O)NC(C(=O)NC(C(=O)O)c4cc(O)cc(O)c4-c4cc3ccc4O)C(O)c3ccc(c(Cl)c3)Oc3cc2cc(c3OC2OC(CNCCO)C(O)C(O)C2OC2CC(C)(NCc3ccc(OCc4ccc(Cl)c(Cl)c4)cc3)C(O)C(C)O2)Oc2ccc(cc2Cl)C1O (centres unmarked) [Compound 146]
CL4931 (in vitro testing) [1]: 8 | CL4877 (in vitro testing) [2]: 0.5 | CL5242 (in vitro testing) [3]: 1 | Mean [4]: 4.4 | CL5053 (in vitro testing) [5]: 8

C=CCNCC1OC(Oc2c3cc4cc2Oc2ccc(cc2Cl)C(O)C2NC(=O)C(NC(=O)C4NC(=O)C(CC(N)=O)NC(=O)C(NC(=O)C(CC(C)C)NC)C(O)c4ccc(c(Cl)c4)O3)c3ccc(O)c(c3)-c3c(O)cc(O)cc3C(C(=O)O)NC2=O)C(OC2CC(C)(NCc3ccc(OCc4ccc(Cl)c(Cl)c4)cc3)C(O)C(C)O2)C(O)C1O (centres unmarked) [Compound 150]
CL4931 (in vitro testing) [1]: 8 | CL4877 (in vitro testing) [2]: 4 | CL5242 (in vitro testing) [3]: 2 | Mean [4]: 5.5 | CL5053 (in vitro testing) [5]: 8

CNC(CC(C)C)C(=O)NC1C(=O)NC(CC(N)=O)C(=O)NC2C(=O)NC3C(=O)NC(C(=O)NC(C(=O)O)c4cc(O)cc(O)c4-c4cc3ccc4O)C(O)c3ccc(c(Cl)c3)Oc3cc2cc(c3OC2OC(CNCc3ccc(Cl)c(Cl)c3)C(O)C(O)C2OC2CC(C)(NCc3ccc(OCc4ccc(Cl)c(Cl)c4)cc3)C(O)C(C)O2)Oc2ccc(cc2Cl)C1O (centres unmarked) [Compound 158]
CL4931 (in vitro testing) [1]: 16 | CL4877 (in vitro testing) [2]: 4 | CL5242 (in vitro testing) [3]: 4 | Mean [4]: 10.0 | CL5053 (in vitro testing) [5]: 16

CNC(CC(C)C)C(=O)NC1C(=O)NC(CC(N)=O)C(=O)NC2C(=O)NC3C(=O)NC(C(=O)NC(C(=O)O)c4cc(O)cc(O)c4-c4cc3ccc4O)C(O)c3ccc(c(Cl)c3)Oc3cc2cc(c3OC2OC(CN)C(O)C(O)C2OC2CC(C)(NCc3ccc(OCc4ccccc4Cl)cc3)C(O)C(C)O2)Oc2ccc(cc2Cl)C1O (centres unmarked) [Compound 182]
CL4931 (in vitro testing) [1]: >16 | CL4877 (in vitro testing) [2]: >16 | CL5242 (in vitro testing) [3]: 4 | Mean [4]: 13 | CL5053 (in vitro testing) [5]: >16

CNC(CC(C)C)C(=O)NC1C(=O)NC(CC(N)=O)C(=O)NC2C(=O)NC3C(=O)NC(C(=O)NC(C(=O)O)c4cc(O)cc(O)c4-c4cc3ccc4O)C(O)c3ccc(c(Cl)c3)Oc3cc2cc(c3OC2OC(CNCc3cccc(Cl)c3)C(O)C(O)C2OC2CC(C)(NCc3ccc(OCc4ccc(Cl)c(Cl)c4)cc3)C(O)C(C)O2)Oc2ccc(cc2Cl)C1O (centres unmarked) [Compound 137]
CL4931 (in vitro testing) [1]: 4 | CL4877 (in vitro testing) [2]: 0.12 | CL5242 (in vitro testing) [3]: 1 | Mean [4]: 2.3 | CL5053 (in vitro testing) [5]: 4

CNC(CC(C)C)C(=O)NC1C(=O)NC(CC(N)=O)C(=O)NC2C(=O)NC3C(=O)NC(C(=O)NC(C(=O)O)c4cc(O)cc(O)c4-c4cc3ccc4O)C(O)c3ccc(c(Cl)c3)Oc3cc2cc(c3OC2OC(CN)C(O)C(O)C2OC2CC(C)(NCc3ccc(Oc4ccc(Cl)c(Cl)c4)cc3)C(O)C(C)O2)Oc2ccc(cc2Cl)C1O (centres unmarked) [Compound 186]
CL4931 (in vitro testing) [1]: 8 | CL4877 (in vitro testing) [2]: 8 | CL5242 (in vitro testing) [3]: 2 | Mean [4]: 6.5 | CL5053 (in vitro testing) [5]: 8

CNC(CC(C)C)C(=O)NC1C(=O)NC(CC(N)=O)C(=O)NC2C(=O)NC3C(=O)NC(C(=O)NC(C(=O)O)c4cc(O)cc(O)c4-c4cc3ccc4O)C(O)c3ccc(c(Cl)c3)Oc3cc2cc(c3OC2OC(CNC3CC3)C(O)C(O)C2OC2CC(C)(NCc3ccc(OCc4ccc(Cl)c(Cl)c4)cc3)C(O)C(C)O2)Oc2ccc(cc2Cl)C1O (centres unmarked) [Compound 165]
CL4931 (in vitro testing) [1]: 16 | CL4877 (in vitro testing) [2]: 16 | CL5242 (in vitro testing) [3]: 8 | Mean [4]: 14.0 | CL5053 (in vitro testing) [5]: 16

CNC(CC(C)C)C(=O)NC1C(=O)NC(CC(N)=O)C(=O)NC2C(=O)NC3C(=O)NC(C(=O)NC(C(=O)O)c4cc(O)cc(O)c4-c4cc3ccc4O)C(O)c3ccc(c(Cl)c3)Oc3cc2cc(c3OC2OC(CN)C(O)C(O)C2OC2CC(C)(NCc3ccc(OCc4ccc(C(=O)OC)cc4)cc3)C(O)C(C)O2)Oc2ccc(cc2Cl)C1O (centres unmarked) [Compound 177]
CL4931 (in vitro testing) [1]: >16 | CL4877 (in vitro testing) [2]: >16 | CL5242 (in vitro testing) [3]: 4 | Mean [4]: 13 | CL5053 (in vitro testing) [5]: >16

CNC(CC(C)C)C(=O)NC1C(=O)NC(CC(N)=O)C(=O)NC2C(=O)NC3C(=O)NC(C(=O)NC(C(=O)O)c4cc(O)cc(O)c4-c4cc3ccc4O)C(O)c3ccc(c(Cl)c3)Oc3cc2cc(c3OC2OC(CNCCc3ccc(N)cc3)C(O)C(O)C2OC2CC(C)(NCc3ccc(OCc4ccc(Cl)c(Cl)c4)cc3)C(O)C(C)O2)Oc2ccc(cc2Cl)C1O (centres unmarked) [Compound 135]
CL4931 (in vitro testing) [1]: 4 | CL4877 (in vitro testing) [2]: 0.06 | CL5242 (in vitro testing) [3]: 1 | Mean [4]: 2.3 | CL5053 (in vitro testing) [5]: 4

CNC(CC(C)C)C(=O)NC1C(=O)NC(CC(N)=O)C(=O)NC2C(=O)NC3C(=O)NC(C(=O)NC(C(=O)O)c4cc(O)cc(O)c4-c4cc3ccc4O)C(O)c3ccc(c(Cl)c3)Oc3cc2cc(c3OC2OC(CN)C(O)C(O)C2OC2CC(C)(NCc3ccc(OCc4ccc(Cl)cc4)cc3)C(O)C(C)O2)Oc2ccc(cc2Cl)C1O (centres unmarked) [Compound 171]
CL4931 (in vitro testing) [1]: 4 | CL4877 (in vitro testing) [2]: 16 | CL5242 (in vitro testing) [3]: 1 | Mean [4]: 7.25 | CL5053 (in vitro testing) [5]: 8
